Experimental data as given in patent publication US7358352B2, “Nucleic acids encoding human TNF-α convertase” (Schering Corporation, priority 1996, dated 2008).
Like-named read-outs stand apart in the source and are kept apart here. The star is where a group is joined. MeOSuc = COC(=O)CCC(=O)*; CH2Cl = ClC*

Columns and labels:
TNF-α convertases = assay: In vitro assays for TNF-α convertase activity (protease inhibitor profile); type: biochemical
Description: For the assay of convertase activity associated with or isolated from membrane preparations, a protein-based assay was carried out essentially as described by Mohler et al., Nature 370:218 (1995).
Briefly, a peptide-tagged recombinant human TNF-α protein substrate (Flag-TNF-α) was cloned and expressed in E. coli. The protein was purified by affinity chromatography using an M2 (anti-Flag)-Sepharose column (Kodak), and by ion exchange chromatography using a BIOCAD equipped with an HQ10 column.
To test for convertase activity, a membrane protein sample (12 μg) was mixed (in 12 μl) with 2 ng of ^125I-polypeptide substrate (approximately 50,000 cpm) in the presence of inhibitors of other proteolytic enzymes [e.g., 200 μM 4-(2-aminoethyl)-benzenesulfonyl fluoride hydrochloride (AEBSF), 2 μM pepstatin, 200 μM leupeptin, 1 mM methoxysuccinyl-Ala-Ala-Pro-Val-chloromethylketone (AAPV)], and with or without 2.5 mM EDTA. Following incubation at 37° C. overnight, samples were fractionated in a 16% sodium dodecylsulfate (SDS) gel and subjected to SDS polyacrylamide gel electrophoresis [SDS-PAGE; Laemmli, Nature 227:680 (1970)]. The gels were dried, and radioactivity was detected by autoradiography.
A polypeptide-based assay for TNF-α convertase activity was also carried out essentially using the method of Mohler et al., supra. Briefly, an amino-terminal dinitrophenylated peptide substrate, amidated at the carboxyl terminus (SEQ ID NO: 4) was synthesized and purified using standard procedures. Dinitrophenylated polypeptides corresponding to cleavage products expected for TNF-α convertase (a dinitrophenylated peptide having the sequence of residues 1-6 of SEQ ID NO: 4) and for other membrane proteases were also synthesized.
To test for convertase activity, a membrane protein sample was mixed in 50 μl with 1 μg peptide substrate in the presence of inhibitors (0.2 mM AEBSF, 2 μM pepstatin, 200 μM leupeptin, 1 mM AAPV). Following incubation at 37° C. for from 60 minutes to overnight, the protein was precipitated by cold 5% trichloroacetic acid (TCA), 20% acetonitrile, and the soluble peptide fraction was applied to a YMC 120 angstrom C-18 ODS-AQ column (4.6×100 mm; YMC, Inc.). The column was eluted isocratically at a flow rate of 1 ml/min using 40% acetonitrile plus 0.06% trifloroacetic acid. The elution of DNP-peptide was monitored at 360 nm using a Waters 625 LC system.

TNF-α secretion [1] = conditions: in vitro; cited from earlier work
TNF-α secretion [2] = conditions: in vivo; cited from earlier work
lethal dose of endotoxin = conditions: mice; cited from earlier work
[3] = general property, concentration not given

In the case of `O[C@H](CS)[C@H](O)CS` (racemic) [DTT, dithiothreitol], the “inhibition of TNF-α convertases” value (TNF-α convertases; [3]) is reported as “Inhibited”.

With `CC(C)C[C@H](NC(=O)[C@H]1O[C@@H]1C(=O)O)C(=O)NCCCCN=C(N)N` (relative stereo) [E64] the “inhibition of TNF-α convertases” value (TNF-α convertases; 100 μM) was “Not inhibited”.

For `c1cnc2c(c1)ccc1cccnc12` [1,10-phenanthroline], the “inhibition of TNF-α convertases” value (TNF-α convertases; [3]) was “Inhibited”.

With `O=c1oc(Cl)c(Cl)c2ccccc12` [DCI, dichloroisocoumarin] the “inhibition of TNF-α convertases” value (TNF-α convertases; 100 μM) was “Not inhibited”.

For `O=C(O)CN(CCN(CC(=O)O)CC(=O)O)CC(=O)O` [EDTA, ethylenediaminetetraacetic acid], the “inhibition of TNF-α convertases” value (TNF-α convertases; [3]) was “Inhibited” and the “band at the position of the 17 kDa human TNF-α cleavage product (SDS-PAGE autoradiography)” value (TNF-α convertases; membrane protein sample, 125I Flag-TNF-α substrate, with or without 2.5 mM EDTA, 37° C. overnight) was “intensified bands from the samples incubated without EDTA”.

In the case of `CNC(=O)[C@H](Cc1ccccc1)NC(=O)[C@H](CC(C)C)[C@H](CSc1ccccc1)C(=O)NO` [GI 129471], the “block of TNF-α secretion” value (TNF-α secretion [1]) is given as “block TNF-α secretion” and the “block of TNF-α secretion” value (TNF-α secretion [2]) is given as “block TNF-α secretion”.

With `O=C(O)CI` [IAA, iodoacetic acid] the “inhibition of TNF-α convertases” value (TNF-α convertases; 1 mM) was “Not inhibited”.

In the case of `CC(C)CC(CC(=O)NO)C(=O)N[C@@H](Cc1ccc2ccccc2c1)C(=O)N[C@@H](C)C(=O)NCCN` (stereo partly drawn) [N-{D,L-[2-(hydroxyaminocarbonyl)methyl]-4-methylpentanoyl}L-3-(2′naphthyl)-alanyl-L alanine, 2-aminoethyl amide], the “protection against a lethal dose of endotoxin” value (lethal dose of endotoxin) is listed as “protect mice against a lethal dose of endotoxin”.

With `C[C@H](CS)C(=O)N1CCC[C@H]1C(=O)O` [captopril] the “inhibition of TNF-α convertases” value (TNF-α convertases; 100 μM) was “Not inhibited”.

With `CC(C)C[C@H](NP(=O)(O)O[C@@H]1O[C@@H](C)[C@H](O)[C@@H](O)[C@H]1O)C(=O)N[C@@H](Cc1c[nH]c2ccccc12)C(=O)O` [phosphoramidon] the “inhibition of TNF-α convertases” value (TNF-α convertases; 300 μM) was “Not inhibited”.

In the case of `O=C(O)CNC(=O)C(CS)Cc1ccccc1` (centres unmarked) [thiorphan], the “inhibition of TNF-α convertases” value (TNF-α convertases; 100 μM) is reported as “Not inhibited”.

With “TIMP-1: tissue inhibitor of metalloproteases-1” the “inhibition of TNF-α convertases” value (TNF-α convertases; 1 μg/ml) was “Not inhibited”.

For “methoxysuccinyl-Ala-Ala-Pro-Val-chloromethylketone (MeOSuc-AAPV-CH2Cl)”, the “inhibition of TNF-α convertases” value (TNF-α convertases; 1 mM) was “Not inhibited”.

With “α-2 macroglobulin: protein protease inhibitor” the “inhibition of TNF-α convertases” value (TNF-α convertases; [3]) was “Inhibited”.

B1: SBTI: soybean trypsin inhibitor (protein, UniProt P01070 25-205, looked up)
Trypsin inhibitor A: DFVLDNEGNPLENGGTYYILSDITAFGGIRAAPTGNERCPLTVVQSRNELDKGIGTIISSPYRIRFIAEGHPLSLKFDSFAVIMLCVGIPTEWSVVEDLPEGPAVKIGENKDAMDGWFRLERVSDDEFNNYKLVFCPQQAEDDKCGDIGISIDHDDGTRRLVVSKNKPLVVQFQKLDKESL
For B1, the “inhibition of TNF-α convertases” value (TNF-α convertases; 1 μg/ml) was “Not inhibited”.
